This note sets out measurements from patent US11471502B2, “Neuroprotective peptide” (UNIVERSITY COLLEGE CARDIFF C[…], priority 2017, dated 2022).

What is called EC50 is the midpoint of the concentration-response curve.

“Also recorded” adds a separate entry of the source.

The subject of experiment [1] is HdhQ111 mice. Kind of experiment: HdhQ111 genetic mouse model of Huntington's disease. The experiment is classed as in vivo. As to the method:
WT and HdhQ111 mice were treated with CPP-RB5 or Scramble (CPP-SCR) peptides (20 mg/kg i.p.) for 8 days.
Two-way ANOVA Bonferroni post-hoc comparison ***p<0.001.
HdhQ111 heterozygous mice (Jax®, Bar Harbour, Me., U.S.A.), zQ175 knock-in heterozygous (mix sex) carrying between 180 and 195 CAG repeats (CHDI-81003003, Psychogenics, Inc. Tarrytown, N.Y.) and Tg2576 transgenic male mice (C57BL6 and SLJ mix background, Taconic Biosciences) were used for IHC, IF and behavioural test.
We also evaluated the potential neuroprotective effect of RB5, in hdhQ111 transgenic mice, a late onset genetic model of Huntington's Disease. hdhQ111 mice were treated (20 mg/kg, i.p., twice a day) for 7 days (FIG. 5).

Experiment [2] addresses phospho p44/p42 MAP kinase. Kind of experiment: Dose response curve of RB5 for ERK activation in striatal slices. Particulars: 200 μm striatal slices, 1 h pre-treatment; read-out: EC50 for enhancing pERK (phospho-ERK positive cells). The experiment is classed as cell-based, mouse. The method, then: a) RB5 peptide selectively promoted activation of ERK2. Acute striatal slices either pre-treated with Scramble (SCR) or RB5 peptide (50 μM) and then stimulated 10 minutes with glutamate (GLU) (100 μM) or vehicle were analysed in Western blot (left panel) and probed with anti phospho ERK antibodies (p44^ERK1 and p42^ERK2) and anti ERK1/2 antibody. GAPDH was used as loading control. […] No changes were detected in the total ERK1 and ERK2 levels. GAPDH was used as loading control. […] Mice injected with a single dose of CPP-SCR or CPP-RB5 peptides (20 mg/kg, i.p.) were rapidly perfused 1 h later and brains were dissected and further analysed for IHC and immunofluorescence. Representative photomicrographs of pERK1/2, pMSK, pAch3, pELK1 and c-Fos expression in the striatum. […] Two-way ANOVA Bonferroni post hoc comparison: one black star, p<0.05, two black stars, p<0.01, one white star, p<0.001. p) Dose response curve of RB5 peptide for ERK activation. 200 μm thick striatal slices were freshly prepared from 2-month old mice and transferred into a perfusion chamber for 1 h at 32° C. Slices were pre-treated with different doses of RB5 or scrambled control. After 1 h, slices for each dose was fixed in PFA 4% for 15 min. […] Neuronal quantification was performed with ImageJ software by counting the number of phospho-ERK positive cells in each slice. […] The EC50 was calculated using GraphPad Prism software.

Experiment [3] concerns Tg2576 mice. Kind of experiment: Tg2576 mouse model of Alzheimer's Disease, neuroprotection. It counts as in vivo. Particulars: 20 mg/kg i.p., 7 days. The method, then: Two-way ANOVA Bonferroni post-hoc comparison **p<0.01***p<0.001.
The genetic model of Alzheimer's Disease Tg2576 and their WT controls have been treated for 7 days with RB5/scramble peptide (20 mg/kg, i.p).

In experiment [4] the test system is ERK1/MAPK3. Kind of experiment: Single in vivo administration in ERK1 KO versus ERK1 WT mice. More on the design: species or system mouse. The method, then:
a) RB5 peptide selectively promoted activation of ERK2. Acute striatal slices either pre-treated with Scramble (SCR) or RB5 peptide (50 μM) and then stimulated 10 minutes with glutamate (GLU) (100 μM) or vehicle were analysed in Western blot (left panel) and probed with anti phospho ERK antibodies (p44^ERK1 and p42^ERK2) and anti ERK1/2 antibody. GAPDH was used as loading control. […] No changes were detected in the total ERK1 and ERK2 levels. GAPDH was used as loading control. […] Mice injected with a single dose of CPP-SCR or CPP-RB5 peptides (20 mg/kg, i.p.) were rapidly perfused 1 h later and brains were dissected and further analysed for IHC and immunofluorescence. Representative photomicrographs of pERK1/2, pMSK, pAch3, pELK1 and c-Fos expression in the striatum. […] Two-way ANOVA Bonferroni post hoc comparison: one black star, p<0.05, two black stars, p<0.01, one white star, p<0.001. p) Dose response curve of RB5 peptide for ERK activation. 200 μm thick striatal slices were freshly prepared from 2-month old mice and transferred into a perfusion chamber for 1 h at 32° C. Slices were pre-treated with different doses of RB5 or scrambled control. After 1 h, slices for each dose was fixed in PFA 4% for 15 min. 18 μm cryo-sections were processed for immunohistochemistry with anti-phospho p44/p42 MAP kinase. Neuronal quantification was performed with ImageJ software by counting the number of phospho-ERK positive cells in each slice. The level of activation is expressed on the Y-axis as arbitrary units (AU). Doses are reported in a logarithmic scale (Log 10) on the X-axis. The EC50 was calculated using GraphPad Prism software.
ERK1 male KO and littermate controls, were generated as described previously and were used for ex vivo analysis.
Mice pre-treated with a single dose of CPP-RB5 or CPP-SCR (20 mg/kg) were perfused 1 h later and brain slices were processed for nuclear and cytoplasmic markers.

Experiment [5] has as its system MPTP treated mice. Kind of experiment: Subacute MPTP mouse model of Parkinson's Disease. It counts as in vivo. The note with it: 4 days. The method, then: Adult mice were treated with MPTP or vehicle (20 mg/kg i.p.) for 4 days. […] Two-way ANOVA Bonferroni post-hoc comparison *p<0.05**p<0.01.
Two-way ANOVA Bonferroni post-hoc comparison *p<0.05**p<0.01
We have assessed the neuroprotective effect of RB5 in the MPTP (1-methyl-4-phenyl-1,2,3,6-tetrahydropyridine) neurotoxin model of Parkinson's Disease (FIG. 6). Mice have been treated with MPTP or vehicle (20 mg/kg, i.p) for 4 days. RB5 or scramble peptide (20 mg/kg, i.p) was injected 1 h before MPTP/vehicle.

Turning to `CSCC[C@H](NC(=O)[C@H](CCC(=O)O)NC(=O)[C@@H](NC(=O)[C@H](CCC(=O)O)NC(=O)CNC(=O)[C@@H]1CCCN1C(=O)[C@@H](NC(=O)CNC(=O)[C@@H]1CCCN1C(=O)CNC(=O)[C@@H](NC(=O)CNC(=O)[C@H](CCC(=O)O)NC(=O)[C@@H](NC(=O)[C@H](CCCNC(=N)N)NC(=O)[C@H](CCCNC(=N)N)NC(=O)[C@@H]1CCCN1C(=O)[C@H](CCC(=O)O)NC(=O)CNC(=O)CNC(=O)CNC(=O)CNC(=O)CNC(=O)[C@H](CCC(N)=O)NC(=O)[C@@H]1CCCN1C(=O)[C@@H]1CCCN1C(=O)[C@H](CCCNC(=N)N)NC(=O)[C@H](CCCNC(=N)N)NC(=O)[C@H](CCCNC(=N)N)NC(=O)[C@H](CCC(N)=O)NC(=O)[C@H](CCCNC(=N)N)NC(=O)[C@H](CCCNC(=N)N)NC(=O)[C@H](CCCCN)NC(=O)[C@H](CCCCN)NC(=O)[C@H](CCCNC(=N)N)NC(=O)CNC(C)=O)[C@@H](C)O)C(C)C)C(C)C)C(C)C)C(=O)N[C@H](C(=O)N[C@@H](CCCCN)C(=O)NCC(=O)N[C@@H](CCC(N)=O)C(=O)N1CCC[C@H]1C(=O)N[C@@H](Cc1ccccc1)C(=O)N[C@@H](CC(=O)O)C(=O)N[C@@H](C(=O)O)C(C)C)C(C)C` [RB5], the “degeneration in the hdhQ111 mutants” value in experiment [1] (20 mg/kg i.p. twice a day, 7 days) was “prevents degeneration”. In experiment [1] (20 mg/kg i.p., 8 days), the “ERK activation (pERK) in striatum” value is “elevated pERK in WT and mutant striata; also recorded: significant enhancement of ERK activation”. In addition, the “apoptotic cells (TUNEL, dorsal striatum)” value in experiment [1] (HdhQ111 mice, 20 mg/kg i.p., vs Scramble) is on record as “significant reduction of apoptotic cells”. Also, the “pre-apoptotic state (Cleaved Caspase-3)” value in experiment [1] (hdhQ111 mice, 20 mg/kg i.p.) was “significant reduction of pre-apoptotic state”. Besides, the EC50 in experiment [2] came to 3.4 µM. For the same compound, in experiment [3], the “ERK activation (pERK) in hippocampal CA1 and Dentate Gyrus” value is “increased pERK; also recorded: significant enhancement of ERK activation”; the “pre-apoptotic state (Cleaved Caspase-3 staining)” value is recorded as “reduced the levels of cleaved caspase-3 staining; also recorded: significant reduction of the pre-apoptotic state”. The “pERK, pAcH3 (and pS6)” value in experiment [4] (ERK1 KO mice, single administration) is “did not alter; also recorded: did not reach the statistical significance”. In addition, the “pERK and pAcH3” value in experiment [4] (ERK1 WT mice, single administration) is given as “significant activation”. Also, the “phosphorylation of S6” value in experiment [4] (ERK1 WT vs ERK1 KO mice) is recorded as “comparable in both genotypes”. Moreover, the “TH loss in Substantia Nigra” value in experiment [5] (20 mg/kg i.p. 1 h before MPTP 20 mg/kg) is on record as “significant reduction of TH loss”. In experiment [5] (20 mg/kg i.p. 1 h before MPTP), the “apoptotic cells (TUNEL, nigral neurones)” value is on record as “significant reduction of apoptotic cells”; the “neurodegeneration (TH, TUNEL, cleaved caspase 3)” value was “Neurodegeneration was prevented”; the “pre-apoptotic state (Cleaved Caspase-3)” value was “significant reduction of the pre-apoptotic state”.
